How the values were obtained:
HeLa cells = test: HeLa cell inhibition assay (SRB cell viability); format: cell-based; settings: 72 h, IC50 range
Method: HeLa cells growing in log phase were harvested and seeded at 1000 cells/well (200 μl final volume) into 96-well tissue culture plates. Following 24 h of cell growth cells were treated with compounds (final concentration of 20 μM). Plates were then re-incubated for a further 72 h before a sulphorhodamine B (SRB) cell viability assay was conducted according to Skehan 1990 J Natl Canc Inst 82, 1107-1112.
(§1) Data were expressed as a percentage inhibition of the control, measured in the absence of inhibitor, as follows:— % inhibition=100−[(S^i/S^o)×100] where S^i is the signal in the presence of inhibitor and S^o is the signal in the presence of DMSO.
IC50 values were determined by non-linear regression analysis, after fitting the results of eight data points to the equation for sigmoidal dose response with variable slope (% activity against log concentration of compound), using Graphpad Prism software.
(§2) IC50 results were allocated to one of 3 ranges as follows: […]

HUT = HUT cell inhibition assay (WST-1 cell viability); format: cell-based; settings: HUT cells, 72-96 h, WST-1 assay, IC50 range
Method: (§3) Cancer cell lines (U937 and HUT) growing in log phase were harvested and seeded at 1000-2000 cells/well (100 μl final volume) into 96-well tissue culture plates. Following 24 h of growth cells were treated with compound. Plates were then re-incubated for a further 72-96 h before a WST-1 cell viability assay was conducted according to the suppliers (Roche Applied Science) instructions.
as §1
(§4) Dose response curves were generated from 8 concentrations (top final concentration 10 μM, with 3-fold dilutions), using 6 replicates.
(§5) IC50 values were determined by non-linear regression analysis, after fitting the results to the equation for sigmoidal dose response with variable slope (% activity against log concentration of compound), using Graphpad Prism software.
as §2

[1] = target: histone deacetylase activity (HeLa nuclear extract); test: HDAC fluorescent activity assay (Biomol, Fluor de Lys substrate); format: biochemical; settings: IC50 range
Method: The ability of compounds to inhibit histone deacetylase activities was measured using the commercially available HDAC fluorescent activity assay from Biomol. In brief, the Fluor de Lys™ substrate, a lysine with an epsilon-amino acetylation, is incubated with the source of histone deacetylase activity (HeLa nuclear extract) in the presence or absence of inhibitor. Deacetylation of the substrate sensitises the substrate to Fluor de Lys™ developer, which generates a fluorophore.
Data are expressed as a percentage of the control, measured in the absence of inhibitor, with background signal being subtracted from all samples, as follows:— % activity=[(S^i−B)/(S^o−B)]×100 where S^i is the signal in the presence of substrate, enzyme and inhibitor, S^o is the signal in the presence of substrate, enzyme and the vehicle in which the inhibitor is dissolved, and B is the background signal measured in the absence of enzyme.
Histone deacetylase activity from crude nuclear extract derived from HeLa cells was used for screening. The preparation, purchased from 4C (Seneffe, Belgium), was prepared from HeLa cells harvested whilst in exponential growth phase. The nuclear extract is prepared according to Dignam JD1983 Nucl. Acid. […] The final buffer composition was 20 mM Hepes, 100 mM KCl, 0.2 mM EDTA, 0.5 mM DTT, 0.2 mM PMSF and 20% (v/v) glycerol.

U937 = U937 cell inhibition assay (WST-1 cell viability); format: cell-based; settings: U937 cells, 72-96 h, WST-1 assay, IC50 range
Method: as §3, §1, §4, §5, §2

Row | IC50 (HeLa cells; Homo sapiens, HeLa) [nM] | IC50 [1] [nM] | IC50 (U937; Homo sapiens, U-937) [nM] | IC50 (HeLa cells) [nM] | IC50 (U937) [nM] | Structure (SMILES) | IC50 (HUT) [nM]
1 | > 3300 | < 100 | 331 to 3300 |  |  | O=C(NO)c1cnc(N2CC3C(C2)C3N(CCN2CCCC2=O)S(=O)(=O)c2ccc(OC(F)(F)F)cc2)nc1 (stereo not drawn) [Example 55, N-Hydroxy 2-{6-[[2-(2-oxopyrrolidin-1-yl)ethyl]-(4-trifluoromethoxybenzenesulfonyl)amino]-3-aza-bicyclo[3.1.0]hex-3-yl}pyrimidine-5-carboxamide] | 331 to 3300
2 | 331 to 3300 | < 100 | < 330 |  |  | O=C(NO)c1cnc(N2CC3C(C2)C3NCc2ccc3ccccc3c2)nc1 (stereo not drawn) [Example 20, N-Hydroxy 2-{6-[(2-naphthylmethyl)amino]-3-azabicyclo[3.1.0]hex-3-yl}pyrimidine-5-carboxamide] | < 330
3 | < 330 | < 100 | < 330 |  |  | O=C(NO)c1cnc(N2CC3C(C2)C3NCc2csc3ccccc23)nc1 (stereo not drawn) [Example 32, N-Hydroxy 2-{6-[(1-benzothien-3-ylmethyl)amino]-3-azabicyclo[3.1.0]hex-3-yl}pyrimidine-5-carboxamide] | < 330
4 | 331 to 3300 | 101 to 1000 | 331 to 3300 |  |  | O=C(NO)c1cnc(N2CC3C(C2)C3N(Cc2cccnc2)Cc2ccc3ccccc3c2)nc1 (stereo not drawn) [Example 58, N-Hydroxy 2-[6-(naphthalen-2-ylmethylpyridin-3-ylmethylamino)-3-aza-bicyclo[3.1.0]hex-3-yl]pyrimidine-5-carboxamide] | 331 to 3300
5 | 331 to 3300 | < 100 | 331 to 3300 |  |  | O=C(NO)c1cnc(N2CC3C(C2)C3NCCc2ccccc2)nc1 (stereo not drawn) [Example 38, N-Hydroxy 2-{6-[(2-phenylethyl)amino]-3-azabicyclo[3.1.0]hex-3-yl}pyrimidine-5-carboxamide] | < 330
6 | < 330 | < 100 | 331 to 3300 |  |  | O=C(NO)c1cnc(N2CC3CN(C(=O)c4ccc5ccccc5c4)CC3C2)nc1 (stereo not drawn) [Example 77, N-Hydroxy 2-[5-(naphthalene-2-carbonyl)hexahydropyrrolo[3,4-c]pyrrol-2(1H)-yl]pyrimidine-5-carboxamide] | < 330
7 | 331 to 3300 | < 100 | 331 to 3300 |  |  | O=C(NO)c1cnc(N2CC3C(CNCc4ccc5ccccc5n4)C3C2)nc1 (stereo not drawn) [Example 74, N-Hydroxy 2-(6-{[(quinolin-2-ylmethyl)amino]methyl}-3-azabicyclo[3.1.0]hex-3-yl)pyrimidine-5-carboxamide] | < 330
8 |  | < 100 |  | < 330 | < 330 | COc1ccc(CNC2C3CN(c4ncc(C(=O)NO)cn4)CC32)cc1 (stereo not drawn) [Example 26, N-Hydroxy 2-{6-[(4-methoxybenzyl)amino]-3-azabicyclo[3.1.0]hex-3-yl}pyrimidine-5-carboxamide] | < 330
9 | 331 to 3300 | < 100 | 331 to 3300 |  |  | O=C(NO)c1cnc(N2CC3CN(S(=O)(=O)c4ccc(OC(F)(F)F)cc4)CC3C2)nc1 (stereo not drawn) [Example 82, N-Hydroxy 2-[5-{[4-(trifluoromethoxy)phenyl]sulfonyl}hexahydropyrrolo[3,4-c]pyrrol-2(1H)-yl]pyrimidine-5-carboxamide] | 331 to 3300
10 | 331 to 3300 | < 100 | 331 to 3300 |  |  | O=C(CCCOc1ccccc1)NC1C2CN(c3ncc(C(=O)NO)cn3)CC21 (stereo not drawn) [Example 15, N-Hydroxy 2-[6-(4-phenoxybutyrylamino)-3-azabicyclo[3.1.0]hex-3-yl]pyrimidine-5-carboxamide] | 331 to 3300
11 | > 3300 | < 100 | 331 to 3300 |  |  | O=C(NO)c1cnc(N2CC3CN(S(=O)(=O)c4cc(C(F)(F)F)cc(C(F)(F)F)c4)CC3C2)nc1 (stereo not drawn) [Example 81, N-hydroxy 2-[5-(3,5-bistrifluoromethylbenzenesulfonyl)hexahydropyrrolo[3,4-c]pyrrol-2(1H)-yl]-pyrimidine-5-carboxamide] | 331 to 3300
12 | < 330 | < 100 | < 330 |  |  | O=C(NO)c1cnc(N2CC3C(C2)C3NCc2cc(C(F)(F)F)cc(C(F)(F)F)c2)nc1 (stereo not drawn) [Example 35, N-Hydroxy 2-{6-[(3,5-bistrifluoromethylbenzyl)amino]-3-azabicyclo[3.1.0]hex-3-yl}pyrimidine-5-carboxamide] | < 330
13 | 331 to 3300 | < 100 | 331 to 3300 |  |  | O=C(NO)c1cnc(N2CC3C(CNCc4ccc(Cl)cc4)C3C2)nc1 (stereo not drawn) [Example 73, N-Hydroxy 2-(6-{[(4-chlorobenzyl)amino]methyl}-3-azabicyclo[3.1.0]hex-3-yl)pyrimidine-5-carboxamide] | < 330
14 | 331 to 3300 | 101 to 1000 | 331 to 3300 |  |  | O=C(NO)c1cnc(N2CC3C(CNCc4ccc5cc(F)ccc5n4)C3C2)nc1 (stereo not drawn) [Example 75, N-Hydroxy 2-(6-{[(6-fluoroquinolin-2-ylmethyl)amino]methyl}-3-aza-bicyclo[3.1.0]hex-3-yl)pyrimidine-5-carboxamide] | 331 to 3300
15 | 331 to 3300 | < 100 | 331 to 3300 |  |  | O=C(NO)c1cnc(N2CC3C(C2)C3N2Cc3ccccc3C2)nc1 (stereo not drawn) [Example 64, N-Hydroxy 2-[6-(1,3-dihydro-2H-isoindol-2-yl)-3-azabicyclo[3.1.0]hex-3-yl]pyrimidine-5-carboxamide] | < 330
16 | 331 to 3300 | < 100 | 331 to 3300 |  |  | O=C(NO)c1ccc(N2CC3CN(Cc4ccc5ccccc5c4)CC3C2)nc1 (stereo not drawn) [Example 87] | 331 to 3300
17 | 331 to 3300 | < 100 | 331 to 3300 |  |  | O=C(NO)c1cnc(N2CC3C(C2)C3N(CCc2ccccn2)S(=O)(=O)c2ccc3ccccc3c2)nc1 (stereo not drawn) [Example 54, N-Hydroxy 2-{6-[(naphthalene-2-sulfonyl)-(2-pyridin-2-ylethyl)-amino]-3-azabicyclo[3.1.0]hex-3-yl}pyrimidine-5-carboxamide] | 331 to 3300
18 | 331 to 3300 | < 100 | < 330 |  |  | O=C(NO)c1cnc(N2CC3C(C2)C3NS(=O)(=O)c2cc(C(F)(F)F)cc(C(F)(F)F)c2)nc1 (stereo not drawn) [Example 3, N-Hydroxy 2-(6-{[(3,5-bistrifluoromethylphenyl)sulfonyl]amino}-3-azabicyclo[3.1.0]hex-3-1/1)pyrimidine-5-carboxamide] | < 330
19 | 331 to 3300 | < 100 | 331 to 3300 |  |  | O=C(NO)c1cnc(N2CC3C(C2)C3N(CCO)S(=O)(=O)c2ccc3ccccc3c2)nc1 (stereo not drawn) [Example 49, N-Hydroxy 2-{6-[(2-hydroxyethyl)(naphthalene-2-sulfonyl)amino]-3-azabicyclo[3.1.0]hex-3-yl}pyrimidine-5-carboxamide] | 331 to 3300
20 | > 3300 | > 1000 | > 3300 |  |  | O=C(NO)c1cnc(N2CC3C(C2)C3N(Cc2ccc3ccccc3c2)Cc2ccc3ccccc3c2)nc1 (stereo not drawn) [Example 57, N-Hydroxy 2-[6-(bisnaphthalen-2-ylmethylamino)-3-azabicyclo[3.1.0]hex-3-yl]pyrimidine-5-carboxamide] | > 3300

Row | Structure (SMILES) | IC50 (HeLa cells; Homo sapiens, HeLa) [nM] | IC50 [1] [nM] | IC50 (U937; Homo sapiens, U-937) [nM] | IC50 (HeLa cells) [nM] | IC50 (U937) [nM] | IC50 (HUT) [nM]
21 | O=C(NO)c1cnc(N2CC3C(C2)C3N2CCCCC2)nc1 (stereo not drawn) [Example 63, N-Hydroxy 2-(6-piperidin-1-yl-3-azabicyclo[3.1.0]hex-3-yl)pyrimidine-5-carboxamide] | > 3300 | 101 to 1000 | > 3300 |  |  | 331 to 3300

Source: patent publication US7932246B2, “Histone deacetylase inhibitors” (Chroma Therapeutics Ltd., priority 2005, dated 2011)
